Consider 9 molecules from ChEMBL document CHEMBL2424579, “Quinazolin-4-one derivatives as selective histone deacetylase-6 inhibitors for the treatment of Alzheimer's disease” (J Med Chem, 2013).

In series [1] the test system is Vero. The experiment in a line: Cytotoxicity against african green monkey Vero cells at 25 uM. As to conditions: chlorocebus sabaeus. The format is cell-based.
In series [2] the test system is PC-12. The experiment in a line: Cytotoxicity against rat PC12 cells at 25 uM. The series is classed as cell-based. As to conditions: pc-12, 25 µM.
The target of series [3] is T1, Histone deacetylase 11 (Homo sapiens, UniProt Q96DB2).
T1 sequence (Q96DB2 whole entry): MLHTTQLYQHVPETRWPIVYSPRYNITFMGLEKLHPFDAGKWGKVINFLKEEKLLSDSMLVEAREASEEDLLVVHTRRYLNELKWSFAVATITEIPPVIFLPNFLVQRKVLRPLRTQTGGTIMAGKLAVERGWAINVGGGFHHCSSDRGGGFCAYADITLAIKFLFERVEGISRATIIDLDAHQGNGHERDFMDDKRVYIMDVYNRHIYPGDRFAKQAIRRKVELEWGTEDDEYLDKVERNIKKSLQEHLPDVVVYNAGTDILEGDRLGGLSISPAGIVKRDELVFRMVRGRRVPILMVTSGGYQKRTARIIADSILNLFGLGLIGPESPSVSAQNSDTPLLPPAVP
The experiment in a line: Inhibition of human recombinant HDAC11 expressed in baculovirus/sf9 cells using RHKKAc as substrate.

In series [4] the target is T2, Protein deacetylase HDAC6 (Homo sapiens, UniProt Q9UBN7).
T2 sequence (Q9UBN7 whole entry): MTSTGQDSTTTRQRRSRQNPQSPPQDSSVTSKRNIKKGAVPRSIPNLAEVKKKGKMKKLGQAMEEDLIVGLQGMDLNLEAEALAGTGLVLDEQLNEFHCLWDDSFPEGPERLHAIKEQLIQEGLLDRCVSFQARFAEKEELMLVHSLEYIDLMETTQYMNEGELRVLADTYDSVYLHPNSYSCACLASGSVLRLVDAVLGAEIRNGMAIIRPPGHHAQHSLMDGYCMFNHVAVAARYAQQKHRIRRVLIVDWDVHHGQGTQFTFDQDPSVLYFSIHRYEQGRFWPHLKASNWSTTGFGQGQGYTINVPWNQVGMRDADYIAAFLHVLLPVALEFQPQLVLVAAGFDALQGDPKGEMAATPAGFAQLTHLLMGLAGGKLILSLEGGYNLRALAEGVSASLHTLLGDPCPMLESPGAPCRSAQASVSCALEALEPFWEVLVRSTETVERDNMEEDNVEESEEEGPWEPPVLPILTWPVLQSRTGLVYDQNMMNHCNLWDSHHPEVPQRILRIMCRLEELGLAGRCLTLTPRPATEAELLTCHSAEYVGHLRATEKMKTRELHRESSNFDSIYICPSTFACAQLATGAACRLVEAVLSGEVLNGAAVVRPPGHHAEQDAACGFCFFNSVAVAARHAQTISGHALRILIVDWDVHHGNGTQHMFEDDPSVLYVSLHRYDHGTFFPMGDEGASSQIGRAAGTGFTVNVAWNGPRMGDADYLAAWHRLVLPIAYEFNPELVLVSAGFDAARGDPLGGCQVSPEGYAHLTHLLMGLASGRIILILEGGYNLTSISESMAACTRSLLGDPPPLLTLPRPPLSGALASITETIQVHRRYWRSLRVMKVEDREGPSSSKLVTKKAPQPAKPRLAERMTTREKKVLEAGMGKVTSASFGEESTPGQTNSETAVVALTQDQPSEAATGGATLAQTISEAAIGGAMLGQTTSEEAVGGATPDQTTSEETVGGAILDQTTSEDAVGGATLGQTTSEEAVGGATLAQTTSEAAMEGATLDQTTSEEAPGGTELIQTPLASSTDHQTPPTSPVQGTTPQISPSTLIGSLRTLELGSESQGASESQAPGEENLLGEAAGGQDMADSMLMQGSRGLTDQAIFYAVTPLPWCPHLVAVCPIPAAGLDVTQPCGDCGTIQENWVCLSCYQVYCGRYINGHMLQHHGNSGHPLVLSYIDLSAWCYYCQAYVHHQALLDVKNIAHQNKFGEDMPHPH
The experiment in a line: Inhibition of human recombinant HDAC6 expressed in baculovirus/sf9 cells using RHKKAc as substrate.

The target in series [5] is Histone deacetylase 1 (Homo sapiens, UniProt Q13547). The series can be described thus: Inhibition of human recombinant HDAC1 expressed in baculovirus/sf9 cells using RHKKAc as substrate.
The target in series [6] is Histone deacetylase 2 (Homo sapiens, UniProt Q92769). The experiment in a line: Inhibition of human recombinant HDAC2 expressed in baculovirus/sf9 cells using RHKKAc as substrate.
The nature of series [7]: Cytotoxicity against human SH-SY5Y cells at 25 uM. The format is cell-based.
The species named for series [8] is Homo sapiens. The experiment in a line: Selectivity index, ratio of IC50 for human recombinant HDAC1 to IC50 for human recombinant HDAC6.
The species entered for series [9] is Homo sapiens. The series can be described thus: Selectivity index, ratio of IC50 for human recombinant HDAC8 to IC50 for human recombinant HDAC6.
Series [10] concerns the target T3, Histone deacetylase 8 (Homo sapiens, UniProt Q9BY41).
T3 sequence (Q9BY41 whole entry): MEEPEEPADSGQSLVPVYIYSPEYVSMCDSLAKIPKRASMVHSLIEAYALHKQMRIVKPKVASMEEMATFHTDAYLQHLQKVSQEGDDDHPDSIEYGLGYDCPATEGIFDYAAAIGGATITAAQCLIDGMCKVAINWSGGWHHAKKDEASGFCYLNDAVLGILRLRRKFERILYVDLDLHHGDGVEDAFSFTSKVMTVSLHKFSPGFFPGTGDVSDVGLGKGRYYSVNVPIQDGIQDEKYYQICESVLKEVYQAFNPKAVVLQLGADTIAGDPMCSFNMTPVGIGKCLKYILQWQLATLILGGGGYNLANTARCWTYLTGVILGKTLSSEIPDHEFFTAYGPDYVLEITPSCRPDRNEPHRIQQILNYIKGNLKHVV
The series can be described thus: Inhibition of human recombinant HDAC8 expressed in baculovirus/sf9 cells using RHKAcKAc as substrate.

Series [11] concerns the target T4, Polyamine deacetylase HDAC10 (Homo sapiens, UniProt Q969S8).
T4 sequence (Q969S8 whole entry): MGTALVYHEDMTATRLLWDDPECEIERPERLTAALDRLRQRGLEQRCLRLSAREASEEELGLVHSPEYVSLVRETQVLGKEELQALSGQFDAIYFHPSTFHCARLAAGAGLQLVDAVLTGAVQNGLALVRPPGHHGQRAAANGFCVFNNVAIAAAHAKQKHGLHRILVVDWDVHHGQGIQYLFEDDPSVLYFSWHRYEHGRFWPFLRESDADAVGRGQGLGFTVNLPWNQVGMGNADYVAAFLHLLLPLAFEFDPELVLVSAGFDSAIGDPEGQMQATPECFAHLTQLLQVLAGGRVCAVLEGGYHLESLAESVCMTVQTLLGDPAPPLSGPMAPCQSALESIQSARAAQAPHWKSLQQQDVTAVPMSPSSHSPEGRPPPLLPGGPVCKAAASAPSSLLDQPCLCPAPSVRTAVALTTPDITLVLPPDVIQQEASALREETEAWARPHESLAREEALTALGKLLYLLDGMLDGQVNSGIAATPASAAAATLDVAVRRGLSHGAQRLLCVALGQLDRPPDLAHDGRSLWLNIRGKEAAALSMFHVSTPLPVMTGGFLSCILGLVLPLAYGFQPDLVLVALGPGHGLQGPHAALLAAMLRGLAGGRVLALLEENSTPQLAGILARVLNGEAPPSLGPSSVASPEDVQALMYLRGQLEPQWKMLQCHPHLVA
The experiment in a line: Inhibition of human recombinant HDAC10 expressed in baculovirus/sf9 cells using RHKKAc as substrate.

For series [12], the target named is T5, Amyloid-beta precursor protein (Homo sapiens, UniProt P05067). The series can be described thus: Inhibition of amyloid beta aggregation (unknown origin) after 4 hrs by thioflavin S assay in presence of Zn2+.
The target in series [13] is T5, Amyloid-beta precursor protein. The series can be described thus: Inhibition of amyloid beta aggregation (unknown origin) after 4 hrs by thioflavin S assay in absence of Zn2+.
For series [14], the system named is SH-SY5Y. The series can be described thus: Increase of synaptic activity in human SH-SY5Y cells after 5 days by fluorescence assay. The conditions noted are these: 120 h. The format is functional, cell-based.
The test system of series [15] is PC-12. The series can be described thus: Increase of synaptic activity in rat PC12 cells after 5 days by fluorescence assay. The format is functional, cell-based. The conditions noted are these: PC-12, 120 h.
The subject of series [16] is SH-SY5Y. The experiment in a line: Induction of neurite outgrowth in human SH-SY5Y cells after 5 days. The format is functional, cell-based. As to conditions: 120 h.
The test system of series [17] is PC-12. The experiment in a line: Induction of neurite outgrowth in rat PC12 cells at 10 uM after 5 days. The format is functional, cell-based.
For series [18], the system named is SH-SY5Y. The experiment in a line: Induction of neurite outgrowth in human SH-SY5Y cells at 10 uM after 5 days. The series is classed as functional, cell-based.
Series [19] relates to PC-12. The series can be described thus: Induction of neurite outgrowth in rat PC12 cells after 5 days. The series is classed as functional, cell-based. As to conditions: PC-12, 120 h.
The subject of series [20] is PC-12. The series can be described thus: Induction iof GAP-43 protein expression in rat PC12 cells after 48 hrs by Western blotting analysis. The series is classed as functional, cell-based.
Series [21] addresses Poly [ADP-ribose] polymerase 1 (Homo sapiens) (UniProt P09874). The series can be described thus: Inhibition of PARP1 (unknown origin) up to 25 uM.

Active and inactive are the calls of the source. The calls are words filed in the database; no cut-off is given here.

Histone deacetylase 2, sequence (Q92769 whole entry): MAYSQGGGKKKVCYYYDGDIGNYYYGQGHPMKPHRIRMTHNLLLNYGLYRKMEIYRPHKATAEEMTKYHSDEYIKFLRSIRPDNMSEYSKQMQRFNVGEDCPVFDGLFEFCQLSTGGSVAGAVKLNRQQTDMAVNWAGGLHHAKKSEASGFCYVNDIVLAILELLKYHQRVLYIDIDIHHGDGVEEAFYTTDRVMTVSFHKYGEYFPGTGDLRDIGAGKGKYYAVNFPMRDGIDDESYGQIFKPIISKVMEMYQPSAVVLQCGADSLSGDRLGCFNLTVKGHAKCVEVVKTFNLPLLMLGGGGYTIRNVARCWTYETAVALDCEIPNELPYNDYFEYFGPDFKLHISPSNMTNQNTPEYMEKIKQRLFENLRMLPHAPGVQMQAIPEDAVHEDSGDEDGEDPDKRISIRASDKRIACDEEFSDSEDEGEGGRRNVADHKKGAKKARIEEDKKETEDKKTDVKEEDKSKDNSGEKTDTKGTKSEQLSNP
T5 sequence (P05067 whole entry): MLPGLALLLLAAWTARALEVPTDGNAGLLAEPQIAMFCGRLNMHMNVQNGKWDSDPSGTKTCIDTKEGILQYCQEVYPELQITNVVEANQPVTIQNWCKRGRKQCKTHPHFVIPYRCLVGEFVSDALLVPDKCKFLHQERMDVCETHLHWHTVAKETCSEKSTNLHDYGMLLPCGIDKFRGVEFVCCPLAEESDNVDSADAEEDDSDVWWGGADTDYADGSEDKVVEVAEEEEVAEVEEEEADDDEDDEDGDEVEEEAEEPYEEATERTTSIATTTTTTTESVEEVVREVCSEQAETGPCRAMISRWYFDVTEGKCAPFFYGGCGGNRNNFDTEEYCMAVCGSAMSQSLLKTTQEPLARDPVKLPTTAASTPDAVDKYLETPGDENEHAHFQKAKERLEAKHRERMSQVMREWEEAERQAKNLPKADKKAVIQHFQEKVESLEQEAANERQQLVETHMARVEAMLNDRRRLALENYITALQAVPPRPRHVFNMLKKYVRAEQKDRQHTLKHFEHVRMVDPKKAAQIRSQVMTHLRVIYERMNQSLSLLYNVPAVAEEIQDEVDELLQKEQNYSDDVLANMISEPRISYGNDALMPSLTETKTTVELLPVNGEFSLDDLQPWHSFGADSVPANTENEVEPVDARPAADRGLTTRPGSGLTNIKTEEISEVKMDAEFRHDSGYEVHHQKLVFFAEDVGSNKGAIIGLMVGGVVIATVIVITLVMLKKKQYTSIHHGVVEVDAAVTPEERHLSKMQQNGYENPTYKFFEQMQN
Histone deacetylase 1, sequence (Q13547 whole entry): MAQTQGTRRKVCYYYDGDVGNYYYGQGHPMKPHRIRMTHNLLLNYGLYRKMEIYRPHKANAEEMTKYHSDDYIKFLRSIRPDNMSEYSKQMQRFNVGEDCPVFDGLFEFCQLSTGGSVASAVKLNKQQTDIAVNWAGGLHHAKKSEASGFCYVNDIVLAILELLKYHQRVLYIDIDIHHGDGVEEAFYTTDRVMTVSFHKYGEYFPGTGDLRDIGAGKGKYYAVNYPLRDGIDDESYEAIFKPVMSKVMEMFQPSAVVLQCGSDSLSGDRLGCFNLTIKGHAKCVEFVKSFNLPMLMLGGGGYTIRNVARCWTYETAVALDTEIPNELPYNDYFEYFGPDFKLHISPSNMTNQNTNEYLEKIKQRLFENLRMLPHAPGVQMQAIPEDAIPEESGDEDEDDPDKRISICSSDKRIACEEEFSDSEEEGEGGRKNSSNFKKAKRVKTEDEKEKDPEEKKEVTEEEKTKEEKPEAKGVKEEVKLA
Poly [ADP-ribose] polymerase 1 (Homo sapiens), sequence (P09874 whole entry): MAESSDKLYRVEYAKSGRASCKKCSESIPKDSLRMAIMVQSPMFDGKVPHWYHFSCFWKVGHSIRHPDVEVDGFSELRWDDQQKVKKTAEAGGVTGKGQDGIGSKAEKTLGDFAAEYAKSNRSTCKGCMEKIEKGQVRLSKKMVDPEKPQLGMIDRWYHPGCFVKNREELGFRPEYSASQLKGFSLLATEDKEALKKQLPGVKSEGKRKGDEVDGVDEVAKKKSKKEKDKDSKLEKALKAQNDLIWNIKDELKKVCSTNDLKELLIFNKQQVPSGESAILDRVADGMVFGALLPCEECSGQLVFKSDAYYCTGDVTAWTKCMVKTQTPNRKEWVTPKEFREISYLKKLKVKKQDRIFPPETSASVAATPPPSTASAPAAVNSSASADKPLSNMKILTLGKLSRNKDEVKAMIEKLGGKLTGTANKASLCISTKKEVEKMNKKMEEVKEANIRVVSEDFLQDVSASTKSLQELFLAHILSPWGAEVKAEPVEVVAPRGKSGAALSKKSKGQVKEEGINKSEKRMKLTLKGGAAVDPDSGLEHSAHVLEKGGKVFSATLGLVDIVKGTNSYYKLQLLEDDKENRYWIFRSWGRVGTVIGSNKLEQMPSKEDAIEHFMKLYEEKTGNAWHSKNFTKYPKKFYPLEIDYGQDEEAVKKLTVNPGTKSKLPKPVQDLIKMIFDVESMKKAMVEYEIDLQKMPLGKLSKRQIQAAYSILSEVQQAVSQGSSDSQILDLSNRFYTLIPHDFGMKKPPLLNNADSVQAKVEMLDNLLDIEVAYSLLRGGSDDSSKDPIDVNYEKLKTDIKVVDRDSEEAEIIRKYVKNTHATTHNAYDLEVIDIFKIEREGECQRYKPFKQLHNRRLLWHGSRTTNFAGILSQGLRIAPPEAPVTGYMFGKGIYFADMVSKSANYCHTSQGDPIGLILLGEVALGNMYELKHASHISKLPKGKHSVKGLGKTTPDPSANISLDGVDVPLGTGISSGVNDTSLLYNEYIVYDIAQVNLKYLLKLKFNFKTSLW

With `CCc1nc2cc(Cl)c(/C=C/C(=O)NO)cc2c(=O)n1CCc1ccccc1`, the Activity entry in series [1], in series [2] and in [7] was “Non-toxic” in each case. For the same molecule, the IC50 is over 30 µM in series [3]; 0.747 µM in [4]; over 10 µM in [5]; over 12 µM in series [6]; 1.88 µM in series [10]. Also, the Ratio IC50 was over 13 in [8] and 3 in [9].
With `Cc1nc2cccc(/C=C/C(=O)NO)c2c(=O)n1-c1ccccc1`, the IC50 in [11] is over 10 µM; in series [12] it was over 50 µM; in series [3], over 10 µM; in [13] it was over 50 µM; in series [4], 1.92 µM; in [5], 18.6 µM. Also, the IC50 is over 10 µM in series [6] and 1.06 µM in series [10]. For the same molecule, the Activity result in series [1], in series [2] and in [7] was “Non-toxic” throughout. Moreover, the Ratio IC50 in series [8] was 10; in series [9], under 1.
For `O=C(O)c1cccnc1` [NIACIN], the values for the IC50 in [12] and in series [13] were 43.7 µM and 13.1 µM, respectively.
Take `CCc1nc2cc(/C=C/C(=O)NO)c(F)cc2c(=O)n1CCc1ccccc1`: the Activity entry in [1], in series [2] and in [7] was “Non-toxic” each time. The IC50 in series [3] is 3.74 µM; in series [4], 0.014 µM; in [5] it was 3 µM; in series [6], over 10 µM; in series [10] it was 1.4 µM. For the same molecule, the Ratio IC50 stood at 214 in series [8] and 100 in series [9].
For `O=C(/C=C/c1ccc2c(=O)n(CCc3ccccc3)cnc2c1)NO`, the Activity entry in series [1], in series [2] and in series [7] was “Non-toxic” throughout. Further, the EC50 in series [14] is 4.9 µM; in series [15], 14.5 µM; in [16], 15 µM; in [19], over 25 µM. Moreover, the concentration for half-maximal inhibition (IC50) was 0.73 µM in series [3]; over 50 µM in [13]; 0.035 µM in series [4]; 0.495 µM in series [5]; 1.22 µM in [6]; 0.6 µM in [10]. Besides, the result in [17] and in series [18] was Active.
Consider `CCc1nc2cc(/C=C/C(=O)NO)ccc2c(=O)n1CCCc1ccccc1`, for which the Activity result in series [20] was “Dose-dependent effect”; in series [1] it was “Non-toxic”; in [2], “Non-toxic”; in series [7], “Non-toxic”. Besides, the inhibition result in series [21] is “inactive”. The EC50 in [14] came to 10 µM; in series [15], 7 µM; in series [16] it was 11.7 µM; in [19], 6.6 µM. Besides, the IC50 was 5.59 µM in series [3]; 0.033 µM in [4]; 3.2 µM in series [5]; over 12 µM in series [6]; 1.33 µM in series [10]. Moreover, the result in series [17] and in series [18] was Active.
Turning to `Cc1nc2cc(/C=C/C(=O)NO)ccc2c(=O)n1CCc1c[nH]c2ccccc12`, the Activity result in [1], in series [2] and in series [7] was “Non-toxic” each time. Further, the IC50 is 1.21 µM in [3]; over 50 µM in series [13]; 0.015 µM in [4]; 0.758 µM in [5]; 2.21 µM in [6]; 1.59 µM in series [10]. For the same molecule, the Ratio IC50 came to 51 in series [8] and 106 in [9].
For the molecule `CCc1nc2cc(/C=C/C(=O)NO)ccc2c(=O)n1CCc1ccccc1`, the Activity result is “Dose-dependent effect” in series [20], “Non-toxic” in series [1], “Non-toxic” in series [2] and “Non-toxic” in [7]. The inhibition entry in series [21] is “inactive”. For the same molecule, the EC50 in series [14] was determined as 0.9 µM; in series [15], 7.2 µM; in series [16] it was 11 µM; in series [19], 5.3 µM. Moreover, the IC50 is 2.95 µM in series [3]; over 50 µM in [13]; 0.011 µM in [4]; 1.19 µM in [5]; 4.81 µM in series [6]; 1.18 µM in series [10]. Also, the outcome in series [17] and in series [18] was Active.
In the case of `O=C(O)CN(CCN(CC(=O)O)CC(=O)O)CC(=O)O` [EDETIC ACID], the IC50 in [12] is 7.7 µM; in series [13], 28.4 µM.
